Among the data in patent US7776862B2, “Pyridyl and phenyl substituted piperazine-piperidines with CXCR3 antagonist activity” (Schering Corporation, priority 2005, dated 2010) are IC50 values, retold here.

For the test, the target named is T1, human CXCR3 (N-delta 4) (Homo sapiens, UniProt P49682).
T1 construct: CD8 leader; Flag tag; expressed in transfected cells; membranes used
T1 sequence (P49682 5-368 limits assumed): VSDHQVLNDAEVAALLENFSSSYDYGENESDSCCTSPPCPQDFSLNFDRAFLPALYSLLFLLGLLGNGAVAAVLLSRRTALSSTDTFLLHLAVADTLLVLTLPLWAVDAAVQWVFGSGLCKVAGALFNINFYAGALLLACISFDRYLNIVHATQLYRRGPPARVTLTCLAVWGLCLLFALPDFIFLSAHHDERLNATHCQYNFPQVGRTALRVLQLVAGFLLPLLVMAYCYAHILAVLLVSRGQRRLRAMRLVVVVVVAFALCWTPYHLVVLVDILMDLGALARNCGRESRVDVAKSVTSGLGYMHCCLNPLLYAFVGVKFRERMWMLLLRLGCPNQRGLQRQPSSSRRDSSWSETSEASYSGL
In words: Human CXCR3 (N-delta 4) scintillation proximity assay (SPA), [125I] IP-10 binding. The conditions noted are these: IC50 rating; Ba/F3-hCXCR3 (N-delta 4) membranes, 25 pM [125I] IP-10. In a few lines:
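Membranes from mouse Ba/F3 pro-B cells stably expressing Flag-tagged human CXCR3 (N-delta 4) were coupled to SPA beads. IP-10 was added together with titrated compounds to start the reaction, and bound radioligand was read by scintillation proximity.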
(In general: In a scintillation proximity assay essentially only radioactivity close to the scintillant gives light.)

By IC50 is commonly meant the concentration that gives 50% inhibition. Lower therefore signals inhibition by little substance. Compound `O=C(NCc1ccc(F)c(F)c1)c1cnc(N2CCN(C3CCN(Cc4ccc(Cl)c(F)c4)CC3)CC2)c(Cl)c1` [compound 121] displayed an IC50 of 25 to 100 nM.

For the compound `C[C@H]1CN(c2ncc(C(=O)N3CCC3)cc2Cl)CCN1C1CCN(Cc2ccc(Cl)cc2)CC1` [compound 348], the IC50 is above 100 nM.

The compound `C[C@H]1CN(c2ncc(C(=O)NCc3ccc(Cl)c(Cl)c3)cc2Cl)CCN1C1CCN(Cc2ccc(C#N)cc2)CC1` [compound 230] registered an IC50 below 25 nM.

In turn, `CCNC(=O)c1cnc(N2C[C@H](C)N(C3CCN(Cc4ccc(Cl)cc4F)CC3)C[C@H]2C)c(Cl)c1` [compound 263] gave an IC50 below 25 nM.

As for `CNC(=O)c1cnc(N2CCN(C3CCN(Cc4ccc(C(F)(F)F)cc4)CC3)[C@@H](C)C2)c(Cl)c1` [compound 301], the half-maximal inhibitory concentration (IC50) was in the range of 25 to 100 nM.

Turning to `CCCS(=O)(=O)NCc1cnc(N2CCN(C3CCN(Cc4ccc(Cl)cc4F)CC3)[C@@H](CC)C2)c(Cl)c1` [compound 388], the IC50 was below 25 nM.

The compound `CCNC(=O)c1cnc(N2CCN(C3CCN(C(=O)c4ccc(Cl)cc4)CC3)C(CC(F)(F)F)C2)c(Cl)c1` (stereo not shown) [compound 309] gave an IC50 of 25 to 100 nM.

Compound `CC[C@H]1CN(c2ncc(CNC(C)=O)cc2Cl)CCN1C1CCN(Cc2ccc(Cl)cc2F)CC1` [compound 387] displayed a 50% inhibitory concentration (IC50) below 25 nM.

Consider `CCNC(=O)c1cnc(N2CCN(C3CCN([C@H](CC)c4ccc(Cl)cc4)CC3)[C@@H](C)C2)c(Cl)c1` [compound 330], for which the IC50 is above 100 nM.

In the case of `CCNC(=O)c1cnc(N2C[C@H](CC)N(C3CCN(Cc4ccc(Cl)cc4F)CC3)C[C@H]2C)c(Cl)c1` [compound 217], the concentration for half-maximal inhibition (IC50) is below 25 nM.

Compound `CNC(=O)c1cnc(N2CCN(C3CCN([C@@H](C)c4ccc(Cl)cc4)CC3)[C@@H](C)C2)c(Cl)c1` [compound 328] gave an IC50 above 100 nM.

On to `O=C(NCc1ccc(Cl)cc1Cl)c1cnc(N2CCN(C3CCN(Cc4ccc(Cl)c(F)c4)CC3)CC2)c(Cl)c1` [compound 133], for which the IC50 was in the range of 25 to 100 nM.

For `CNC(=O)c1cnc(N2CCN(C3CCN(Cc4ccc(Cl)cc4F)CC3)[C@@H](C)C2)c(Cl)c1` [compound 258], the IC50 is below 25 nM.

In turn, `N#Cc1ccc(CN2CCC(N3CCN(c4ncc(C(=O)NCc5ccc(F)c(F)c5)cc4Br)CC3)CC2)cc1` [compound 277] yielded an IC50 of 25 to 100 nM.

`N#Cc1ccc(CN2CCC(N3CCN(c4ncc(C(=O)NCc5ccc(F)cc5F)cc4Cl)CC3)CC2)cc1` [compound 86] showed an IC50 above 100 nM.

In turn, `C[C@H]1CN(c2ncc(C(=O)Nc3ccon3)cc2Cl)CCN1C1CCN(Cc2ccc(Cl)cc2)CC1` [compound 233] returned an IC50 below 25 nM.

`CCC(=NOC)c1cnc(N2CCN(C3CCN(Cc4ccc(Cl)cc4F)CC3)[C@@H](CC)C2)c(Cl)c1` [compound 455] had an IC50 above 100 nM.

The compound `CC[C@H]1CN(c2ncc(C(=O)NC(C)C)cc2Cl)CCN1C1CCN(C(=O)c2ccc(Cl)cc2)CC1` [compound 160] displayed a 50% inhibitory concentration (IC50) of 25 to 100 nM.

For `O=C(NCc1ccc(Cl)c(Cl)c1)c1cnc(N2CCN(C3CCN(Cc4ccc(F)cc4F)CC3)CC2)c(Cl)c1` [compound 90], the IC50 was above 100 nM.

In turn, `CC[C@H]1CN(c2ncc(C(=O)NC)cc2Cl)CCN1C1CCN(Cc2ccc(Cl)cc2)CC1` [compound 223] gave an IC50 below 25 nM.

`N#Cc1ccc(CN2CCC(N3CCN(c4ncc(C(=O)NCc5ccc(Cl)c(Cl)c5)cc4Br)CC3)CC2)cc1` [compound 145] registered an IC50 of 25 to 100 nM.

As to `CC(C)C[C@H]1CN(c2ncc(C(=O)NCc3ccc(F)c(F)c3)cc2Cl)CCN1C1CCN(Cc2ccc(Cl)cc2)CC1` [compound 199], the IC50 was above 100 nM.

`CCNC(=O)NCc1cnc(N2CCN(C3CCN(Cc4ccc(Cl)cc4)CC3)[C@@H](C)C2)c(Cl)c1` [compound 385] showed an IC50 below 25 nM.

As to `C[C@H]1CN(c2ncc(C(=O)NCc3ccc(F)c(F)c3)cc2Cl)CCN1C1CCN(CCOc2ccc(Cl)cc2)CC1` [compound 311], the concentration for half-maximal inhibition (IC50) lay within 25 to 100 nM.

In turn, `CC1CC(N2CCN(c3ncc(C(=O)NCc4ccc(Cl)c(Cl)c4)cc3Cl)CC2)CCN1Cc1ccc(C#N)cc1` (stereo not shown) [compound 143] showed an IC50 of 25 to 100 nM.

`CC[C@H]1CN(c2ncc(C(=O)C3CC3)cc2Cl)CCN1C1CCN(Cc2ccc(Cl)cc2F)CC1` [compound 419] had a half-maximal inhibitory concentration (IC50) of 25 to 100 nM.

Take `N#Cc1ccc(C(=O)N2CCC(N3CCN(c4ncc(C(=O)NCc5ccc(Cl)c(Cl)c5)cc4Cl)CC3)CC2)cc1` [compound 64]: the concentration for half-maximal inhibition (IC50) is above 100 nM.

For `CNC(=O)c1cnc(N2CCN(C3CCN(Cc4ccc(Cl)cc4)CC3)[C@@H](CC(C)C)C2)c(Cl)c1` [compound 198], the IC50 is above 100 nM.

`O=C(NCc1ccc(Cl)cc1)c1cnc(N2CCN(C3CCN(Cc4ccc(Cl)c(F)c4)CC3)CC2)c(Cl)c1` [compound 161] gave an IC50 of 25 to 100 nM.

In turn, `CC[C@H]1CN(c2ncc(CNS(=O)(=O)N(C)C)cc2Cl)CCN1C1CCN(Cc2ccc(Cl)cc2F)CC1` [compound 391] registered an IC50 below 25 nM.

For `O=C(NCc1ccc(F)c(F)c1)c1cnc(N2CCN(C3CCN(Cc4ccc(Br)cc4F)CC3)CC2)c(Cl)c1` [compound 62], the IC50 was above 100 nM.

With `CC[C@H]1CN(c2ncc(CNS(=O)(=O)CC)cc2Cl)CCN1C1CCN(Cc2ccc(Cl)cc2F)CC1` [compound 386], the half-maximal inhibitory concentration (IC50) is below 25 nM.

`CC[C@H]1CN(c2ncc(CNC(=O)NC)cc2Cl)CCN1C1CCN(Cc2ccc(Cl)cc2F)CC1` [compound 377] yielded an IC50 below 25 nM.

The compound `CC[C@H]1CN(c2ncc(CN(C3CC3)S(C)(=O)=O)cc2Cl)CCN1C1CCN(Cc2ccc(Cl)cc2F)CC1` [compound 414] registered an IC50 of 25 to 100 nM.

For the compound `CC[C@H]1CN(c2ncc(C(=O)NC(C)C)cc2Cl)CCN1C1CCN(Cc2ccc(Cl)cc2)CC1` [compound 216], the half-inhibitory concentration (IC50) is below 25 nM.

For `CC[C@H]1CN(c2ncc(CNC(=O)NC(C)C)cc2Cl)CCN1C1CCN(Cc2ccc(Cl)cc2F)CC1` [compound 370], the IC50 was below 25 nM.

For `O=C(NCc1cccc(F)c1)c1cnc(N2CCN(C3CCN(Cc4ccc([N+](=O)[O-])cc4)CC3)CC2)c(Cl)c1` [compound 94], the IC50 is 25 to 100 nM.

In turn, `CC[C@H]1CN(c2ncc(COC(=O)NC(C)C)cc2Cl)CCN1C1CCN(Cc2ccc(Cl)cc2F)CC1` [compound 405] gave an IC50 below 25 nM.

On to `N#Cc1ccc(CN2CCC(N3CCN(c4ncc(C(=O)NCc5cc(Cl)cc(Cl)c5)cc4Cl)CC3)CC2)cc1` [compound 40], for which the IC50 is above 100 nM.

As for `CC1CN(c2ncc(C(=O)NCc3ccc(Cl)c(Cl)c3)cc2Cl)CCN1C1CCN(Cc2ccc([N+](=O)[O-])cc2)CC1` (stereo not shown) [compound 186], the IC50 was below 25 nM.

On to `O=C(NCC1CC1)c1cnc(N2CCN(C3CCN(Cc4ccc(Cl)cc4)CC3)CC2)c(Cl)c1` [compound 167], for which the IC50 was above 100 nM.

Compound `CCNC(=O)c1cnc(N2CCN(C3CCN(C(=O)c4ccc(Cl)cc4)CC3)[C@@H](CC)C2)c(Cl)c1` [compound 246] came in with an IC50 below 25 nM.

With `CCNC(=O)c1cc(Cl)c(N2CCN(C3CCN(Cc4ccc(Cl)cc4F)CC3)[C@@H](CC)C2)[n+]([O-])c1` [compound 229], the half-inhibitory concentration (IC50) is below 25 nM.

In turn, `O=C(NCc1ccc(Cl)cc1)c1cnc(N2CCN(C3CCN(Cc4ccc(Cl)cc4Cl)CC3)CC2)c(Cl)c1` [compound 13] displayed an IC50 above 100 nM.

Consider `O=C(NCc1ccc(F)cc1F)c1cnc(N2CCN(C3CCN(Cc4ccc([N+](=O)[O-])cc4)CC3)CC2)c(Cl)c1` [compound 128], for which the IC50 was 25 to 100 nM.

`O=C(NCc1ccc(F)cc1)c1cnc(N2CCN(C3CCN(Cc4ccc(F)c(F)c4)CC3)CC2)c(Cl)c1` [compound 106] showed an IC50 of 25 to 100 nM.

Consider `CC[C@H]1CN(c2ncc(C(=O)OC)c(N)c2Cl)CCN1C1CCN(Cc2ccc(Cl)cc2F)CC1` [compound 441], for which the IC50 was above 100 nM.

Compound `CCNC(=O)c1cnc(N2CCN(C3CCN(C(=O)c4ccc(Cl)cc4)CC3)[C@@H](C(C)C)C2)c(Cl)c1` [compound 211] displayed an IC50 above 100 nM.

The compound `COC(=O)c1cnc(N2CCN(C3CCN(Cc4ccc(F)cc4)CC3)[C@@H](C)C2)c(Cl)c1` [compound 449] had an IC50 above 100 nM.

Compound `CC[C@H]1CN(c2ncc(C(N)=NO)cc2Cl)CCN1C1CCN(Cc2ccc(Cl)cc2F)CC1` [compound 404] had an IC50 below 25 nM.

Compound `CNC(=O)c1cnc(N2CCN(C3CCN(Cc4ccc(F)cc4Cl)CC3)[C@@H](C)C2)c(Cl)c1` [compound 299] yielded an IC50 of 25 to 100 nM.

As to `COCCNC(=O)c1cnc(N2CCN(C3CCN(Cc4ccc(Cl)cc4)CC3)[C@@H](CC(C)C)C2)c(Cl)c1` [compound 195], the half-inhibitory concentration (IC50) is above 100 nM.

`O=C(NCc1ccc(F)cc1F)c1cnc(N2CCN(C3CCN(Cc4ccc(Cl)cc4)CC3)CC2)c(Cl)c1` [compound 97] registered an IC50 of 25 to 100 nM.

As to `CC[C@H]1CN(c2ncc(CNC)cc2Cl)CCN1C1CCN(Cc2ccc(Cl)cc2F)CC1` [compound 393], the IC50 was below 25 nM.

`O=C(NCc1ccccc1)c1cnc(N2CCN(C3CCN(Cc4ccc(Cl)cc4)CC3)CC2)c(Cl)c1` [compound 72] gave an IC50 above 100 nM.

`O=C(NCc1cc(Cl)cc(Cl)c1)c1cnc(N2CCN(C3CCN(Cc4ccc(Cl)c(F)c4)CC3)CC2)c(Cl)c1` [compound 80] came in with an IC50 above 100 nM.

The compound `CC[C@H]1CN(c2ncc(CNC(N)=O)cc2Cl)CCN1C1CCN(Cc2ccc(Br)cc2F)CC1` [compound 376] gave a concentration for half-maximal inhibition (IC50) below 25 nM.

`N#Cc1ccc(C(=O)N2CCC(N3CCN(c4ncc(C(=O)NCc5ccc(Br)cc5)cc4Cl)CC3)CC2)cc1` [compound 68] registered an IC50 above 100 nM.
